Converted amounts (≈) assume the structure as drawn.
What was measured:
HaCaT cells = assay: ROS content / ROS scavenging rate in HaCaT after UVB radiation (DCFH-DA); format: cell-based, human; conditions: content 0.0025%; HaCaT cells after UVB radiation
Excerpt: Oxidative reactions such as respiration and metabolism in organisms generate reactive free radicals. Under normal bodily conditions, free radicals have a stable scavenging system, so that the free radical content of the body is kept at a relatively low concentration. Oxidative stress (OS) refers to an imbalance between oxidation and antioxidation in the body due to endogenous and/or exogenous stimuli, resulting in excessive free radical production. Excessive free radicals produce a series of negative effects in the body, including oxidative damage to biomolecules and further causing cell death and tissue damage, etc. In organisms, almost all ROS, except for trace amounts utilized by the body, should be promptly scavenged. Medium Wave Erythema Effect Ultraviolet (UVB) (280-319 nm) radiation damage is the most important factor leading to photoaging of the skin, primarily damaging keratinocytes (HaCaT), specifically manifested as the accumulation of photoproducts, increased ROS, and exacerbated oxidative damage, etc. Over long periods of evolution, organisms have developed a complete antioxidant system, maintaining a dynamic balance between the production and elimination of free radicals. This is an adaptive mechanism of organisms, and the main members include antioxidant enzymes, antioxidants, and proteins that separate transition metals, all of which can specifically limit oxidative damage to the body. Therefore, the antioxidant efficacy of a test compound can be evaluated by detecting the ROS scavenging rate in keratinocytes after UVB radiation.
• 1) Cell inoculation: HaCaT cells were inoculated into a 96-well plate at 2 × 10^4/well, cultured in an incubator (37 °C, 5% CO2) for 12 hrs, and a control group (120 mJ/cm^2 + vehicle control), a low concentration group (120 mJ/cm^2 + low concentration compound), a medium concentration group (120 mJ/cm^2 + medium concentration compound), and a high concentration group (120 mJ/cm^2 + high concentration compound) were respectively provided. • 2) UVB modeling: The HaCaT cells were washed 3 times with D'Hanks before UVB radiation, 50 µL of D'Hanks was added into the wells, to make the cells to be immersed, and the control group was coated with tinfoil and placed in the dark. For the test groups, UVB modeling was performed on the group requiring radiation, respectively. • 3) Administration: DMEM medium containing different concentrations of compound were added to each test group for continued culture for 24 hrs. • 4) Transferring the ROS fluorescent probe: DCFH-DA was Diluted to a final concentration of 10 µmol/L using PBS at a dilution ratio of 1:1000. The culture medium in all wells except the bare cell wells was discarded. After washing three times with PBS, 200 µL of DCFH-DA working solution was added to each well, then incubated in a CO2 incubator for 30 min, and after incubation, the cells in each well were washed with PBS for 3 times. • 5) Fluorescence analysis. The 96-well plate to be tested was placed on the detection stage of the fluorescence microplate reader, with the […] set to 525 nm, the excitation light wavelength set to 488 nm, and the reading was analyzed.
ROS scavenging rate (%) = (S(Modelcontrolgroup)−S(Samplegroup))/(S(Modelcontrolgroup)) × 100% [formula] wherein S is fluorescence intensity.

[1] = Kinetic solubility in aqueous buffer; format: physicochemical; conditions: 2 hrs at 25 °C
Procedure: Experimental Methods: 30 µL of the 10 mM DMSO stock solution of the compound to be test was placed in a solubility sample plate (duplicate), 970 µL of aqueous buffer solution was added to the plate, and the plate was sealed with a sealing membrane and shaken at 1100 rpm for 2 hrs at 25 °C. The sample in the solubility plate was transferred to a filter plate, and filtered to obtain a filtrate. 10 µL of the filtrate was transferred into 980 µL of methanol along with 10 µL of DMSO, and then the solution was diluted 10-fold with methanol:water (1:1), and the resulting sample was analyzed by LC-MS/MS to obtain Area (filtered). Separately, 10 mM of the DMSO stock solution of the compound to be test was diluted to 300 µM with DMSO. 10 µL of this 300 µM DMSO solution and 10 µL of aqueous buffer solution were added into 980 µL of methanol, and then diluted 10-fold with methanol:water (1:1), and the resulting sample was analyzed by LC-MS/MS to obtain Area (std). The kinetic solubility was calculated according to the following formula: Solubility(μM) = (Areafiltered × DFfiltered)/(Areastd × DFstd) × [std] × DFstd [formula] wherein DF is the dilution factor.

solubility kinetic at 2 h [1] [µM]	Compound	ROS scavenging rate (HaCaT cells) [%]
–	CN(C)C(=O)Oc1ccc2c(c1)OS(=O)(=O)c1cc(OC(=O)N(C)C)ccc1-2 [Compound I-13]	35
98.8 (≈ 22.5 µg/mL)	O=c1oc2cc(O)ccc2c2ccc(O)cc12 [Urolithin A, reference compound]	–
–	CC(C)C(=O)Oc1ccc2c(c1)OS(=O)(=O)c1cc(OC(=O)C(C)C)ccc1-2 [Compound I-14]	29

Source: patent EP4803511A1, “SMALL MOLECULE COMPOUND HAVING SULFONIC ACID OR SULFINIC ACID LACTONE STRUCTURE, COMPOSITION AND USE THEREOF” (Hangzhou Phecdamed Co., Ltd., priority 2023, dated 2025)
